{"source": "paper PMC8165102", "about": "(International Journal of Nanomedicine, 2021)", "key": {"[1]": {"settings": "cited from earlier work"}, "[2]": {"test_system": "guinea pig papillary muscle", "settings": "0.4 µM; cited from earlier work"}, "[3]": {"assay": "Surfactant-assisted rapid release of BF211@Lipo", "type": "physicochemical"}}, "data": [{"molecule": "C[C@]12CC[C@H](O)C[C@H]1CC[C@@H]1[C@@H]2CC[C@]2(C)[C@@H](c3ccc(=O)oc3)CC[C@]12O", "note": "[BF, Bufalin]", "values": [{"measurement": "solubility", "setting": "[1]", "result": 10, "unit": "µg/mL"}, {"measurement": "effect on papillary muscle", "setting": "[2]", "result": "arrhythmias"}]}, {"molecule": "Tween 80", "values": [{"measurement": "release-promoting effect on BF211@Lipo", "setting": "[3]", "result": "weak and unregulated release-promoting effect"}]}]}
